Here are results for one molecule from patent US10716783B2, “Prolylhydroxylase/ATF4 inhibitors and methods of use for treating neural cell injury or death and conditions resulting therefrom” (CORNELL UNIVERSITY, priority 2013, dated 2020).

Entries after “also recorded” stand apart in the source; their conditions may differ.

Data set [1] relates to intracerebral hemorrhage (autologous blood infusion). Nature of the data set: Autologous blood infusion ICH in rats. The class given is in vivo. How it is done: (§1) FIGS. 4A-4N. Adaptoquin delivered post-injury reduces cell death and enhances functional recovery post injury in mice and rats. Adaptoquin's effects in mice are not associated with global shifts of iron out of the brain. FIG. 4A: Experimental design for schedule of delivery of adaptaquin post-ICH. 30 mg/kg was delivered post-injury and then daily for seven days during which behavioral analysis was done. Mice were sacrificed at day 7 for qPCR and Fluoro-jade staining. […] FIG. 4J: Protocol for adaptoquin treatment of rats with ICH. ICH is modeled by autologous blood infusion and not collagenase in these studies. Behavior is tracked by a single pellet reaching task out to 28 days, but the schedule of infusion is similar to what is used in mice-2 hrs post blood infusion and then daily out to seven days. Behavior is monitored before, from 9-11 days and from 25-28 days. […] FIG. 4L: Protocol for evaluating the total concentrations of iron and zinc in brain following ICH in vehicle and adaptoquin treated mice. FIGS. 4M, 4N: Pseudocolored sections of collagenase induced ICH in mice after 7 days. […] These studies are consistent with the notion that adaptoquin works by inhibiting a specific metalloenzyme rather than global movement of metal ions.
To determine whether adaptoquin could ameliorate outcomes using a distinct model of ICH in a distinct species, adaptoquin was tested it (30 mg/kg, intraperitoneal) in a model of autologous blood infusion in rats. Autologous blood infusion causes a narrower slit like lesion in the striatum than collagenase, but results in motor impairments out beyond 30 days. Adaptoquin (30 mg/kg) was administered two hours after autologous blood infusion and then daily for seven days.

Data set [2] has as its system ATF4. As to the kind of experiment: ATF4 hydroxylation (ATF4 immunoprecipitation, hydroxyproline immunoblot). The format is cell-based.
Data set [3] relates to HIF-1 protein. As to the kind of experiment: HIF-1 protein stabilisation in primary neurons (Western blot). The conditions noted are these: FIG. 6H, 6I. The format is cell-based. From the text:
FIGS. 1A-1L: Structurally diverse HIF PHD inhibitors stabilize HIF-1 and abrogate toxicity induced by hemin, a byproduct of blood breakdown, in cortical neurons hippocampal neuroblasts and striatal neuroblasts (not shown). […] FIGS. 6A-6I. […] Expression of ATF4 was forced into primary neurons, which induces death of these neurons by MTT assay (FIG. 6D) or LIVE/DEAD staining, Green is live, Red is dead (FIG. 6E).
On the technique in general: A western blot detects proteins with antibodies after separation by electrophoresis.

Data set [4] relates to intracerebral hemorrhage (collagenase into the striatum). As to the kind of experiment: Collagenase-induced ICH in mice. The class given is in vivo. Conditions: for Corner task (spatial neglect): 30 mg/kg i.p. 2 h post collagenase then daily for seven days; for Tape removal task (sensory neglect): 1 and 3 days post ICH; for Neuronal degeneration (Fluoro-jade staining), striatum hematoma and perihematomal area: day 7. How it is done: as §1, with “ions. To determine whether HIF PHD inhibition after ICH can improve behavioral outcomes, 30 mg/kg of adaptoquin was delivered to the peritoneum of mice two hours following the injection of collagenase into the striatum. An identical dose of adaptoquin (30 mg/kg) was given daily for seven days. […] These molecular deletion and pharmacological inhibition studies supported HIF PHDs as targets for therapy post ICH, but left unanswered the mechanism by which adaptoquin could abrogate neuronal death. A first prediction of the model was that adaptoquin enhances functional recovery without affecting total brain iron levels. Total iron levels were monitored in brain sections from vehicle- and adaptoquin-treated (30 mg/kg) mice seven days following ICH.” for “ions.”

Turning to `Oc1cccnc1NC(c1ccc(Cl)cc1)c1ccc2cccnc2c1O` (stereo not drawn) [adaptoquin], in data set [1] (30 mg/kg i.p.), the Body weight result was “no significant changes”, the Glucose levels entry was “no significant changes” and the Temperature entry is “no significant changes”. Besides, the “Single pellet reaching task (percent correct)” value in data set [1] (30 mg/kg i.p. 2 h after blood infusion then daily for seven days, later time points) was “significant improvements in percent correct; also recorded: improves single pellet reaching”. In data set [2], the ATF4 hydroxylation entry was “inhibits ATF4 hydroxylation”. Also, in data set [3], the “HIF-1 stabilisation relative to protective concentration” value is “stabilizes HIF-1 at concentrations higher than that required for full protection”. Besides, in data set [4], the “Corner task (spatial neglect)” value is “significantly normalized”. Also, in data set [4] (listed as Adaptoquin), the “Corner task (spatial neglect)” value is given as “corrects behavioral deficits”. In data set [4] (30 mg/kg i.p.), the “Tape removal task (sensory neglect)” value was “significant improvement”; the “Neuronal degeneration (Fluoro-jade staining), striatum hematoma and perihematomal area” value is listed as “reduction in the number of degenerating neurons”. Besides, the “Tape removal task (sensory neglect)” value in data set [4] (30 mg/kg i.p., listed as Adaptoquin) is on record as “corrects behavioral deficits”. The Hematoma size entry in data set [4] (30 mg/kg i.p., at 24 hours) is “no difference”. Moreover, the Edema entry in data set [4] (30 mg/kg i.p., at three days) is reported as “did decrease edema”. Also, in data set [4] (30 mg/kg i.p., listed as Apatoquin), the “Neuronal degeneration (Fluoro-jade staining), striatum hematoma and perihematomal area” value was “significantly reduces neuronal degeneration”. Also, the p21 expression entry in data set [4] (30 mg/kg post-ICH then daily for seven days, qPCR day 7) is reported as “induced p21 expression”.
